Reference: PMC2731040 (BMC Clinical Pharmacology, 2009)
Entries after “also recorded” stand apart in the source; their conditions may differ.

What was measured:
[1] = Plasma pharmacokinetics of cocaine and benzoylecgonine after IV cocaine-d5 infusion; details: for Cmax: cocaine-d5 IV 0.5 mg/kg over 10 min then 2 mg/kg over 4 h; for Cmax / (t1/2)z / AUC (0-∞) / AUC(0-t) / AUCext / Tmax / λz: mean ± SD
Description: In this open-label, unblinded study, a 0.5 mg/kg intravenous loading dose of cocaine-d5 HCl over 10 minutes was followed by a slow 4 hour constant rate cocaine-d5 infusion of 2.0 mg/kg(~175 mg for a 70 kg person). […] When this method of cocaine administration is utilized, a larger dose can be given over a longer period of time and approximates frequently reported patterns of cocaine use. This method also allowed for close monitoring and termination of the infusion if untoward psychiatric or cardiovascular effects occurred.
For both cocaine infusions (sessions 1 and 2), plasma samples for cocaine and metabolites (~6 ml) were obtained 5 minutes before and 10 minutes, 0.5, 1, 1.5, 2, 4, 4.25, 4.5, 5, 6, 8, 12, 21, 27, 33, and 45 hours after each cocaine infusion.
Plasma concentrations of cocaine and benzoylecgonine were measured in our laboratory using a method we developed. The method allows for simultaneous determination of cocaine, benzoylecgonine, and deuterium-labeled analogs [cocaine-d5 and benzoylecgonine-d5 (BE-d5)] by using combined gas chromatography-mass spectrometry (GC-MS). Differently labeled stable isotope analogs were used as internal standards. The calibration curves were from 5 to 2,000 ng/mL for cocaine-d5 and 10 to 2,000 ng/mL for BE-d5. Lower limits of quantitation (LLOQ) were 5 ng/ml (cocaine-d5) and 10 ng/ml (BE-d5) in plasma. Qualitative urine benzoylecgonine was measured by Northwest Toxicology Laboratory, Salt Lake City, Utah, using the Roche Diagnostics Online® immunoassay.
The plasma concentration-time profiles for cocaine and benzoylecgonine (BE) were analyzed by non-compartmental methods, utilizing the pharmacokinetic data analysis program WinNonlin Pro, version 3.0 [31].
The area under the plasma concentration-time curve was calculated using the linear trapezoidal rule up to the maximum plasma concentration, and thereafter using the logarithmic trapezoidal rule to the last measurable plasma concentration. The remaining area was extrapolated to infinity by dividing the last appropriate plasma concentration by the terminal exponential rate constant.
Maximum plasma concentration (Cmax) and time of maximum plasma concentration (Tmax) were determined by visual inspection of data. "Terminal" exponential half-life [(t1/2)z] was calculated from log-linear regression of "terminal" exponential phase data points. Cocaine clearance (CL) and terminal exponential volume of distribution (Vz) were calculated by conventional equations: CL = [Dose/Area under the curve (AUC)0-∞] and Vz = CL/λz, respectively, where λz ("terminal" exponential rate constant) = ln2/(t1/2)z. […] Amount of BE in urine samples was calculated by multiplying concentration by volume.

[2] = Selegiline and metabolites excreted in 24 hour urine collections; type: in vivo, human; design: unit not given here; details: Mean ± SD, N = 12
Description: (§1) When subjects were in the GCRC, all urine was collected and volumes recorded. Following each cocaine infusion, urine was collected in fractions from 0 to 24, 24 to 48, and 48 to 72 hours (timed from the start of the infusion). Samples were then frozen at -70°C until analyzed. […] A qualitative screen for drugs of abuse was obtained every other day for the entire study period.
(§2) All analyses employed a one-factor repeated-measures analysis of variance (ANOVA), with all parameters analyzed as their logarithmic (natural) transforms. If a day effect was found between days 9, 11, 12, and 13, a Tukey multiple comparison procedure was employed posthoc to compare the days in pairs. A test for linear trend was included. All probability estimates presented are based on the Type III sums of squares.

[3] = test system: nondependent cocaine-experienced subjects; experiment: Adverse events and cardiovascular safety monitoring; type: in vivo, human; details: STS 6 mg/24 hours
Description: (§3) Heart rate, blood pressure, respiration rate, skin and core temperature were recorded at specific times during the study. During infusions, measures were obtained pre-dose and at 0.17, 0.5, 0.75, 1, 1.5, 2, 2.5, 3, 3.5, 4, 4.25, 4.5, 5, 6, 8, 12, 18, 24, 36, 48, and 72 hours after dosing. The electrocardiogram was monitored continuously during the infusion and for 4 hours after the termination of the intravenous cocaine infusion. EKG tracings were recorded at each data collection point.

[4] = test system: nondependent cocaine-experienced subjects; experiment: Subjective measures (verbal ratings, visual analog scales, POMS) during cocaine challenge sessions; type: in vivo, human
Excerpt: Verbal ratings of global intoxication and craving (on a scale of 0 to 100) were obtained at the same time points as the physiologic measures, with 0 representing no drug effect and 100 representing the highest level of intoxication or craving.
Visual analog scales were used to rate the degree of drug liking by moving an arrow along a 10 cm line marked at opposite ends as 0 (not at all) and 100 (extreme) using a hand-held computer (Tandy 102). Items rated on the visual analog scale included "good drug effect" and "bad drug effect," and were obtained prior to cocaine infusion and at 0.17, 0.5, 0.75, 1, 1.5, 2, 2.5, 3, 3.5, 4, 4.25, 4.5, 5, 6, and 8 hours after dosing.
The Profile of Mood States (POMS) assessed mood changes in Anger, Confusion, Fatigue, Tension, and Vigor on a scale from 0 to 4, where 0 indicated "no effect" and 4 indicates "extremely strong". Ratings were obtained prior to cocaine infusion and at 1, 3, and 6 hours after dosing.
(§4) The time courses of physiologic and subjective data were analyzed by repeated measures analysis of variance (ANOVA). Treatment conditions (Sessions 1 and 2) and observation times (hours post-dose) were considered within-subject factors. Change scores (post-dose minus pre-dose values) were used in most analyses. Raw score were used where indicated. After a significant F test, pairwise comparisons of treatment conditions were performed using the least squares means analysis. Peak effects within a session were determined for each subject and each variable and analyzed using a one-factor repeated measures ANOVA. Effects were considered statistically significant at p = 0.05. Data were adjusted for sphericity using the Huynh-Feldt adjustment factor. Huynh-Feldt-corrected significance values are reported.

[5] = test system: nondependent cocaine-experienced subjects; experiment: Physiologic measures during cocaine challenge sessions; type: in vivo, human; details: session 2 vs session 1; peak effects and effects across time
Description: Heart rate, systolic and diastolic blood pressure were measured using a cardiovascular monitor (Dinamap by Critikon, Vital Signs Monitor 1846 SX). Rate pressure product was calculated as the product of systolic blood pressure and heart rate. Respiration rate was measured by counting the number of inhalations per minute. These vital signs were determined with the patient in a supine position for at least 10 minutes.
as §3, §4

noradrenergic tone = experiment: Urinary MHPG-S excretion (surrogate for noradrenergic tone, MAO-A metabolite); type: in vivo, human
Excerpt: The interactions between MAO-A inhibitors and cocaine administered are largely unexplored. […] Therefore, measurement of dopaminergic and noradrenergic tone may be important in predicting toxic events. We measured dopaminergic tone with the surrogate marker of plasma HVA, the major brain metabolite of dopamine, and serum levels of prolactin, a hormone whose secretion is inhibited by dopamine. The surrogate for noradrenergic tone was urine concentrations of MHPG-S. In order to assess the degree of MAO-A and MAO-B inhibition, we assayed concentrations of a substrate of MAO-B, phenylethylamine (PEA). PEA would be expected to increase with MAO-B inhibition, and concentrations of MHPG-S, which is a metabolite of norepinephrine produced by MAO-A primarily in the brain [20], would be expected to decrease.
as §1
Concentrations of MHPG-S in urine were determined using LC-MS/MS [29]. […] As urinary creatinine excretion is directly related to glomerular filtration and renal blood flow, and urinary creatinine excretion is relatively constant (~1 gm/day), it can be used to estimate concentrations of a substance during a 24 hour urine collection period. Using ratios of the concentrations of MHPG-S to creatinine obtained from assays of these spot urine samples, MGPG-S concentrations during the outpatient period (when subjects would be unlikely to provide accurate 24 hour urine collections) were compared to those from urine samples on inpatient days.

[6] = Trough plasma concentrations of selegiline and metabolites; type: in vivo, human; details: days 9, 11, 12, and 13 of STS; p for linear trend <0.001 (l-methamphetamine) and <0.01 (l-amphetamine)
Excerpt: as §2

[7] = Pre Selegiline (session 1), plasma
[8] = With Selegiline (session 2), plasma
[9] = 0–24 hours after cocaine (day 11), STS 6 mg/24 hours
[10] = 24–48 hours after cocaine (day 12), STS 6 mg/24 hours
[11] = 48–72 hours after cocaine (day 13), no patch applied at 9 AM on day 14

## CN1[C@H]2CC[C@@H]1[C@@H](C(=O)O)[C@@H](OC(=O)c1ccccc1)C2 [Benzoyl-ecgonine, benzoylecgonine]
[1]; [7]
  Cmax: 1045 ± 180 ng/mL
  (t1/2)z: 8.63 ± 5.36 h
  AUC (0-∞): 13600 ± 3820 ng·h/mL
  AUC(0-t): 13000 ± 3030 ng·h/mL
  AUCext: 3.45 ± 6.45%
  Tmax: 4.79 ± 0.50 h
  λz: 0.0928 ± 0.023 h⁻¹
[1]; [8]
  (t1/2)z: 7.52 ± 1.82 h
  AUC (0-∞): 13200 ± 4180 ng·h/mL
  AUC(0-t): 12900 ± 3760 ng·h/mL
  AUCext: 2.21 ± 2.24%
  Tmax: 5.04 ± 0.65 h
  λz: 0.0971 ± 0.024 h⁻¹
[1]; With Selegiline (session 2, after one week STS 6 mg/24 hours), plasma
  Cmax: 957 ± 184 ng/mL
[1]; plasma, after IV cocaine-d5 infusion
  BE AUC relative to that of cocaine: approximately 5.9 times

## C#CCNC(C)Cc1ccccc1 (centres unmarked) [Desmethylselegiline, n-desmethylselegiline]
[2]; [9]
  Excreted in the 24 Hour Urine: 0.184 ± 0.128
[2]; [10]
  Excreted in the 24 Hour Urine: 0.188 ± 0.162
[2]; [11]
  Excreted in the 24 Hour Urine: 0.082 ± 0.086

## C#CCN(C)[C@H](C)Cc1ccccc1 [Selegiline, selegiline]
[1]; after removal of the two outliers, STS 6 mg/24 hours for one week
  Effect of selegiline on cocaine or BE plasma pharmacokinetics: No effect
[3]; cocaine-d5 IV 2.5 mg/kg over 4 hours, 2.5 mg/kg
  Adverse events: One subject reported erectile dysfunction; also recorded: One subject experienced anxiety and one reported insomnia
[3]; selegiline maintenance phase
  Cardiovascular adverse effects (orthostatic vital signs and cardiovascular monitoring): no adverse cardiovascular effects
[4]; between 1.5 and 4.5 hours after cocaine, condition × time significant
  Verbal ratings of craving, second session vs first: lower
[4]; second cocaine session (after selegiline)
  POMS anger, tension and total score scales across time, second session vs first: significantly different (lower)
[5]
  Effect of selegiline on cocaine-induced physiological effects: Neither peak effects (Table 3) nor physiological effects across time were affected
[2]; [9]
  Excreted in the 24 Hour Urine: 0.109 ± 0.073
[2]; [10]
  Excreted in the 24 Hour Urine: 0.145 ± 0.138
[2]; [11]
  Excreted in the 24 Hour Urine: 0.063 ± 0.097
Noradrenergic tone; Day 4–5, 0–24 hr Postselegiline
  Total Amount of MHPG-S Excreted in the 24 Hour Urine Collection: 1.43 ± 0.40 mg
Noradrenergic tone; Day 11–12 Selegiline Phase 1st Day After Cocaine
  Total Amount of MHPG-S Excreted in the 24 Hour Urine Collection: 1.09 ± 0.23 mg
Noradrenergic tone; Day 12–13 Selegiline Phase 2nd Day After Cocaine
  Total Amount of MHPG-S Excreted in the 24 Hour Urine Collection: 1.07 ± 0.40 mg
Noradrenergic tone; Day 13–14 Selegiline Phase 3rd Day After Cocaine, no patch applied at 9 AM on Day 14
  Total Amount of MHPG-S Excreted in the 24 Hour Urine Collection: 1.01 ± 0.33 mg

## CN[C@H](C)Cc1ccccc1 [l-Methamphetamine, l-methamphetamine]
[6]
  Trough plasma concentrations over time: increased over time
[2]; [9]
  Excreted in the 24 Hour Urine: 6.26 ± 2.28
[2]; [10]
  Excreted in the 24 Hour Urine: 8.51 ± 5.69
[2]; [11]
  Excreted in the 24 Hour Urine: 4.83 ± 1.55
